Our source for the inhibition and p-ACC levels values is article PMC10756276, “Highly specific σ2R/TMEM97 ligand FEM-1689 alleviates neuropathic pain and inhibits the integrated stress response” (Proceedings of the National Academy of Sciences of the …, 2023).

For orientation: inhibition means the percentage by which the read-out fell short of the control.

Molecules are shown by their SMILES. Entries after “also recorded” stand apart in the source; their conditions may differ. Some results are limits rather than exact numbers.

One assay concerns the target D3 (Homo sapiens, UniProt P35462). Kind of assay: PDSP competitive binding assay. The following applies: 10 µM test article; read-out: Ki: primary assay inhibition of radioligand binding, D3.
Assay [1] has as its system p-ACC in mouse DRG neurons. Kind of assay: p-ACC immunocytochemistry in cultured DRG neurons. Format: cell-based. The following applies: 16 h; FEM-1689 10, 100, 1,000 nM; A769662 100 µM; wild-type and TMEM97KO neurons. Here is the method: The ICC protocol was based on a previously published protocol ([76]). […] Cells were blocked with 10% normal goat serum (NGS) in PBS-triton X (0.1%). […] Antibodies were incubated at 4 °C overnight. […] It was washed with PBS twice. […] Images were analyzed using Olympus CellSens. […] Number of cells analyzed are detailed in SI Appendix, Tables S3 and S4. […]
T his BSA gradient containing the cells was centrifuged at 900g for 5 min at room temperatur e.
The pellet containing the cells was resuspended in Br ainPhys media (STEMCell #05790) containing 2% […]
1% Gluta Max (Gibco # 350 5 0061). Hu man DRG ne uron s were plated a nd grown o n glass coverslips coate d with po ly-D-lysine (Sigma #P7405). C ultured D RG neurons were plated for 24 hours before being treated.
Methylglyoxal (Sigma- Aldrich #M0252) and F EM- 1689 were serially diluted in media.
Mouse samples - DRG cultures […]
anesthesia and decapitated. […]
section above with minor differences.
Mouse DRG neurons were grown in
SAS-0132 and DKR-1677 were […]
dissolved in 100% DMSO to a final concentr ation of 200mM and stored at - 20 °C. and DKR-1677 were serially diluted in media. Untreated media was completely replaced with media containing each compound. […]
Slides were […]
incubated with 1:2 diluted hydrogen peroxide in distilled water for 10 min at r oom temper ature and washed twice in distilled water. […]

For a further assay, the target named is T1, Alpha2c (Homo sapiens, UniProt P18825).
T1 construct: purchased NIMH Psychoactive Drug Screening Program (PDSP), University of North Carolina at Chapel Hill
Kind of assay: PDSP competitive binding assay. The following applies: 10 µM test article; read-out: Ki: primary assay inhibition of radioligand binding, Alpha2c.

The target of a further assay is T2, M4 (Homo sapiens, UniProt P08173).
T2 construct: purchased NIMH Psychoactive Drug Screening Program (PDSP), University of North Carolina at Chapel Hill
Kind of assay: PDSP competitive binding assay. The following applies: 10 µM test article; read-out: Ki: primary assay inhibition of radioligand binding, M4.

The target of the next assay is D5 (Homo sapiens, UniProt P21918). Kind of assay: PDSP competitive binding assay. The following applies: 10 µM test article; read-out: Ki: primary assay inhibition of radioligand binding, D5.
For the next assay, the target named is T3, Alpha2b (Homo sapiens, UniProt P18089).
T3 construct: purchased NIMH Psychoactive Drug Screening Program (PDSP), University of North Carolina at Chapel Hill
Kind of assay: PDSP competitive binding assay. The following applies: 10 µM test article; read-out: Ki: primary assay inhibition of radioligand binding, Alpha2b.

Sequence of D5 (P21918 whole entry): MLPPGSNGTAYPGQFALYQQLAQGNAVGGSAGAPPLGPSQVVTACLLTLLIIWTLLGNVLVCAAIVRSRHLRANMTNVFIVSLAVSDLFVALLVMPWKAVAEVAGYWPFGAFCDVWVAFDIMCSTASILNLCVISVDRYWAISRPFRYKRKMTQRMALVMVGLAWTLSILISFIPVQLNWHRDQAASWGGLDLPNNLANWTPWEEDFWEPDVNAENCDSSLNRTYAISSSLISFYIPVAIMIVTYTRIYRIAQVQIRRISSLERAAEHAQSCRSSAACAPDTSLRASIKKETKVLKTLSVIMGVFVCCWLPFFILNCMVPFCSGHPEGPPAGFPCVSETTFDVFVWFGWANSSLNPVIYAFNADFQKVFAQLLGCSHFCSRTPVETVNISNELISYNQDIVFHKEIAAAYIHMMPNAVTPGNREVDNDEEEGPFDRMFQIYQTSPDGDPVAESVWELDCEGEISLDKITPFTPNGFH
Sequence of D3 (P35462 whole entry): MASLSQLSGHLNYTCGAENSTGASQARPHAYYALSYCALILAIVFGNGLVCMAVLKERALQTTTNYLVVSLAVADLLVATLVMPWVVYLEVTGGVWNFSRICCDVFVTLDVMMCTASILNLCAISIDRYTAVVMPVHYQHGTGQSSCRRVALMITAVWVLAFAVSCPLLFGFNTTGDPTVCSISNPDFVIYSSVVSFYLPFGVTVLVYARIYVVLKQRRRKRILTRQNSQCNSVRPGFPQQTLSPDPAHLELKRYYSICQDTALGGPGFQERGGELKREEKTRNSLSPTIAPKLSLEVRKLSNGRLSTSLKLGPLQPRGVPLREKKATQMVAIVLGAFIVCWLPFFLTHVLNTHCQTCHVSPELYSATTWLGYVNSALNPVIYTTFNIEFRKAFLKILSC
T3 sequence (P18089 whole entry): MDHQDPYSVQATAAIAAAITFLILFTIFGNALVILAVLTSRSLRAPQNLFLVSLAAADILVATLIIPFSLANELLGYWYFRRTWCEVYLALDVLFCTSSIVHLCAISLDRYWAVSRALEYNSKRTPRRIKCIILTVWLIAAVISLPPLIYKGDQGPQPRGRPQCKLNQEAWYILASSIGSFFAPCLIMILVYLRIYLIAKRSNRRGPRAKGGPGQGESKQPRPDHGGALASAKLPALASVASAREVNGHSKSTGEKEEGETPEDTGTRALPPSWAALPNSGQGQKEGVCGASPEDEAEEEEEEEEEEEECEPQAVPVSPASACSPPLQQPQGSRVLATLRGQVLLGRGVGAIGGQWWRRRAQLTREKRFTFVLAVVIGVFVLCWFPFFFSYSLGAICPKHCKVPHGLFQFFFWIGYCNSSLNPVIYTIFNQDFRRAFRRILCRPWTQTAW
T1 sequence (P18825 whole entry): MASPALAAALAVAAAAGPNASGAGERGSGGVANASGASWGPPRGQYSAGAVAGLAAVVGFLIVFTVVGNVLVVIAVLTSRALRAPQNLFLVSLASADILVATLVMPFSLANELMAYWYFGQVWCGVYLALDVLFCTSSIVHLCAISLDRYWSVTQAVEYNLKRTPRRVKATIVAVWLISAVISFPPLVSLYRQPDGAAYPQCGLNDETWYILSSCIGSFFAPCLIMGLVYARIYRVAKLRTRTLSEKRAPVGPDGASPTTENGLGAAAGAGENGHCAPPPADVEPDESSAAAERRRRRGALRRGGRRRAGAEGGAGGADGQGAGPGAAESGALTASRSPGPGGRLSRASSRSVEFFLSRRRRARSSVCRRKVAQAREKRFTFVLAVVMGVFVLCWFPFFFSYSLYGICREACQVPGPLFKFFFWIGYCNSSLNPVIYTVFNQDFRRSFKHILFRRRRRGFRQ
T2 sequence (P08173 whole entry): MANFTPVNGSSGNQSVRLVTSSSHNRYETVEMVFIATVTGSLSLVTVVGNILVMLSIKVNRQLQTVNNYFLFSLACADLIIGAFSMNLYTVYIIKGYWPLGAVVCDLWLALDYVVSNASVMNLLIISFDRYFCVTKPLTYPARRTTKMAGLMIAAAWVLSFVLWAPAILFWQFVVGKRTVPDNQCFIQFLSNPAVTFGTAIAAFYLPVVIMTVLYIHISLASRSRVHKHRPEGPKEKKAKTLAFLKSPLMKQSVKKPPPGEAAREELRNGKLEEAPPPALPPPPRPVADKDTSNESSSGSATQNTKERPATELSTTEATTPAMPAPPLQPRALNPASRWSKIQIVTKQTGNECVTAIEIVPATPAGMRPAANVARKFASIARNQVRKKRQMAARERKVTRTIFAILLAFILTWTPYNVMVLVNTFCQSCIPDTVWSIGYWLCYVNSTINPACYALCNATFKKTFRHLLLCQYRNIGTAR

As for `OCCCN1CC[C@@H]2C[C@H]1c1cc(-c3ccc(C(F)(F)F)cc3)ccc12` [FEM-1689], the inhibition at 10 µM on D3, at Alpha2c, at M4, at D5 and at Alpha2b was less than 50% each time. The p-ACC levels entry in assay [1] is “remained unchanged; also recorded: no change in p-ACC levels”.
